Several values for one entry are separate records, joined by “and”; a condition that tells them apart may be missing. Equal values may be shown once. Read-outs that look alike come from different tables or passages of the source.
Tests used:
[1] = cited from earlier work
[2] = Overnight malodor study: morning mouth air VSC (H2 S, CH3 SH) by gas chromatography; format: in vivo, human
Protocol: Subjects participating in this study maintained their normal nightly oral hygiene procedure for the duration of the study. In addition, all participants were asked to refrain from eating odoriferous foods at least 24 hours prior to their appointment for measurement of VSC's.
Subjects reported directly to the laboratory each morning for measurement of mouth air VSC levels. This measurement was the baseline (pretreatment) level of VSC. Selection for the study was based on morning levels of H2 S above 30 parts per billion (ppb) and CH3 SH above 20 ppb. Subjects fulfilling this criteria received a treatment to use that evening. Immediately before retiring to bed, the subjects rinsed vigorously for 30 seconds using the assigned treatment. The following morning the subject returned to the lab for analysis of mouth air VSC. This measurement was the post-treatment value. These treatments were assigned in a random, crossover design experiment.
Levels of VSC in subject's mouth air were determined using a gas chromatography system equipped with a flame photometric detector. […] Analysis of variance tested for significant treatment differences.
Differences between treatment were tested by analysis of variance using post minus pretreatment levels of mouth air VSCs.

[3] = Adherence of zinc to simulated dental plaque on steel wires, fluorimetric with 8-hydroxyquinoline
Source text: To determine how readily zinc adheres to dental plaque, the adherence of zinc to simulated plaque grown on steel wires was fluorimetrically measured. Increasing concentrations of zinc solutions were used in the test oral compositions.
After the simulated plaque is developed on the wires, it is then immersed in the oral composition to be tested, which is followed by a rinse. Thereafter, the plaque coated wires are immersed in a 0.01% solution of 8-hydroxyquinoline prepared by dissolving the 8-hydroxyquinoline in 100% ethanol. Twenty (20) ml of this solution were then brought q.s. up to the correct concentration.

[4] = test system: Fusobacterium nucleatum (ATCC 10953); format: cell-based
Source text: The objective of this study was to evaluate the use of pure cultures or oral malodor-causing bacteria as the source of malodor instead of human subjects. Cultures of Fusobacterium nucleatum, Veillonella parvula and Prevotella sp. are well recognized producers of VSC's due to their ability to digest amino acids including cysteine and methionine. The most widely investigated of these is F. nucleatum. Therefore, this organism was selected for this in vitro test. Evaluating a finished oral care composition spiked with Fusobacterium was considered, however, the detector in the Halimeter was adversely affected by alcohols. […] Therefore, the following methodology was applied to screen the effectiveness of various zinc salt solutions in reducing VSC's: Fusobacterium nucleatum (ATCC #10953) was transferred twice from frozen stock cultures and maintained by daily transfers in […]' broth (Difco or BBL). […] The tube is a scaled down version of a Kontes #181000 adapter inlet with hose connectors which is coupled to a 18×100 mm glass tube fitted with a tapered ground fitting. After one minute the Halimeter was connected to a port on the reaction tube and allowed to sample the VSC's in the solution via the vacuum pump. The peak reading recorded by the Halimeter was taken as the VSC measurement. The level of inoculum selected was determined by ppb of VSC's generated in inoculated water alone. […] Three different zinc salt solutions, ZnCl2, ZnSO4, and ZnO, were evaluated. […] Water was used as the control. (Table 1) The heading D% refers to the difference between the measurement of VSCs in ppb using a pure water solution and the measurement of VSCs in ppb using varying concentrations of zinc salts. Each experiment was run in triplicate.

[5] = 1 hour after using 31 or 18 mM; cited from earlier work
[6] = 0.25% zinc chloride, significant reduction from Baseline
[7] = individual subjects 1-13 in table order, morning after 20 ml of 0.25% zinc chloride, 30 second rinse at bedtime
[8] = individual subjects 1-13 in table order, pretreatment, zinc chloride arm
[9] = mean of 13 subjects, pretreatment, zinc chloride arm

SMILES | % D, difference from water in VSC ([4]; 0.01%, first run) [%] | % D, difference from water in VSC ([4]; 0.01%, second run) [%] | % D, difference from water in VSC ([4]; 0.01%, third run) [%] | % D, difference from water in VSC ([4]; 0.05%, first run) [%] | % D, difference from water in VSC ([4]; 0.05%, second run) [%] | % D, difference from water in VSC ([4]; 0.05%, third run) [%] | % D, difference from water in VSC ([4]; 0.1%, first run) [%] | % D, difference from water in VSC ([4]; 0.1%, second run) [%] | % D, difference from water in VSC ([4]; 0.1%, third run) [%] | % D, difference from water in VSC ([4]; 0.2%, first run) [%] | % D, difference from water in VSC ([4]; 0.2%, second run) [%] | % D, difference from water in VSC ([4]; 0.2%, third run) [%] | % D, difference from water in VSC ([4]; 0.4%, first run) [%] | % D, difference from water in VSC ([4]; 0.4%, second run) [%] | % D, difference from water in VSC ([4]; 0.4%, third run) [%] | other results
CC1CCC(C(C)C)C(O)C1 (stereo not drawn) [Menthol, hexahydrothymol, reference compound] | – | – | – | – | – | – | – | – | – | – | – | – | – | – | – | solubility in alcohol [1]: highly soluble
[Cl-].[Cl-].[Zn+2] [ZnCl2, zinc chloride] | -47.4 | -58.3 | -37.0 | -53.0 | -57.5 | -40.0 | -53.8 | -54.6 | -43.1 | -59.8 | -60.4 | -47.9 | -63.2 | -58.9 | -47.4 | CH3 SH, Probability (p), t-test for differences from baseline [2, 6]: .0209; H2 S, Probability (p), t-test for differences from baseline [2, 6]: .0074; CH3 SH levels, Post [2, 7]: 50 ppb and 20 ppb and 63 ppb and 176 ppb and 41 ppb and 35 ppb and 29 ppb and 25 ppb and 133 ppb and 47 ppb and 16 ppb; H2 S levels, Post [2, 7]: 41 ppb and 22 ppb and 162 ppb and 268 ppb and 129 ppb and 106 ppb and 35 ppb and 318 ppb and 32 ppb and 94 ppb and 17 ppb and 97 ppb; CH3 SH levels, Baseline [2, 8]: 173 ppb and 46 ppb and 358 ppb and 115 ppb and 249 ppb and 61 ppb and 51 ppb and 99 ppb and 170 ppb and 217 ppb and 44 ppb and 59 ppb and 34 ppb; H2 S levels, Baseline [2, 8]: 344 ppb and 53 ppb and 522 ppb and 204 ppb and 644 ppb and 310 ppb and 91 ppb and 509 ppb and 191 ppb and 175 ppb and 81 ppb and 110 ppb and 170 ppb; CH3 SH levels, Post, mean (x) ([2]; mean of 13 subjects, morning after 20 ml of 0.25% zinc chloride, baseline mean 129, water 76 to 65): 57 ppb; H2 S levels, Post, mean (x) ([2]; mean of 13 subjects, morning after 20 ml of 0.25% zinc chloride, baseline mean 262, water 164 to 113): 114 ppb; CH3 SH levels, Baseline, mean (x) [2, 9]: 129 ppb; H2 S levels, Baseline, mean (x) [2, 9]: 262 ppb; development of VSC's overnight in vivo ([2]; summary statement in words): prevent or inhibit; amount of fluorescence in dental plaque vs concentration ([3]; ZnCl2 0.001%, 0.010%, 0.025%, 0.050% and 0.100%): the amount of fluorescence increased with increasing zinc concentration; lowest concentration at which fluorescence from zinc was detectable in dental plaque ([3]; base oral composition identical to Example 2, excitation 360 nm, emission 530 nm or 590 nm): 0.001 % (w/v)
[O]=[Zn] [ZnO, zinc oxide] | -53.7 | -54.9 | -40.0 | -48.7 | -51.8 | -37.5 | -58.2 | -57.6 | -42.1 | -59.4 | -63.5 | -47.9 | -60.2 | -70.5 | -54.1 | –
O=S(=O)([O-])[O-].[Zn+2] [ZnSO4, zinc sulfate] | -52.0 | -67.7 | -38.7 | -53.6 | -51.3 | -42.5 | -54.7 | -58.6 | -42.4 | -58.1 | -67.4 | -48.1 | -65.0 | -58.2 | -51.0 | –
CC(C)[C@@H]1CC[C@@H](C)C[C@H]1OC(=O)CCC(=O)O [monomenthyl succinate] | – | – | – | – | – | – | – | – | – | – | – | – | – | – | – | solubility in water [1]: sparingly soluble; solubility in oil ([1]; relative to water): more soluble
O=S(=O)([O-])c1ccc(O)cc1.O=S(=O)([O-])c1ccc(O)cc1.[Zn+2] [zinc phenolsuphonate] | – | – | – | – | – | – | – | – | – | – | – | – | – | – | – | oral zinc concentration [5]: markedly increased
[Cl-].[Cl-].[Zn+2] [zinc] | – | – | – | – | – | – | – | – | – | – | – | – | – | – | – | levels of CH3 SH and H2 S compared to baseline levels ([2]; overnight, morning breath, result in words): significantly reduced

— patent publication US6121315A, “Oral compositions containing a zinc compound” (priority 1999, dated 2000)
